According to PubChem BioAssay (NCI):
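Protocol summary: plate cells (96-well), add compound at 5 concentrations, incubate 48 h, interpolate endpoints linearly. TGI denotes the concentration required for complete inhibition of growth.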

Assays:
Assay in all cases: NCI anticancer screen, dose series, 48 h
[1] = test system: COLO 205 colon
[2] = test system: RXF 393 renal
[3] = test system: EKVX NSCLC
[4] = test system: SR leukemia
[5] = test system: NCI-H460 lung
[6] = test system: SNB-75 CNS
[7] = test system: BT-549 breast
[8] = test system: DU-145 prostate
[9] = test system: NCI-H226 lung
[10] = test system: SK-MEL-5 melanoma
[11] = test system: T-47D breast

Row | Compound | TGI [1] | TGI [2] | TGI [3] | TGI [4] | TGI [5] | TGI [6] | TGI [7] | TGI [8] | TGI [9] | TGI [10] | TGI [11]
1 | C/C(=N\NS(=O)(=O)c1ccc(C)cc1)C(CN(C)C)C(c1ccccc1)c1c(O)c2ccccc2oc1=O (stereo not drawn) | > 100 µM | > 100 µM | > 100 µM | > 100 µM | > 100 µM | > 84.7 µM | > 100 µM | > 100 µM | > 100 µM | > 100 µM | –
2 | NC(=O)c1csc(CCCCCCc2nc(C(N)=O)cs2)n1 | > 100 µM | > 100 µM | > 100 µM | > 100 µM | > 100 µM | > 100 µM | – | – | > 100 µM | > 100 µM | –
3 | O=C(/C=C/c1c(O)ccc2ccccc12)c1cccc2ccccc12 | > 100 µM | > 100 µM | > 100 µM | > 100 µM | > 100 µM | > 100 µM | – | – | > 100 µM | > 100 µM | –
4 | CCCC(=O)N/S(=N/S(=O)(=O)c1ccc(Cl)cc1)C(Cl)(Cl)Cl (stereo not drawn) | – | > 100 µM | > 100 µM | > 100 µM | > 100 µM | – | > 100 µM | > 100 µM | > 100 µM | > 100 µM | > 100 µM
5 | Cn1c(=O)c2c(nc(C[N+]3([O-])CCOCC3)n2C)n(C)c1=O | > 100 µM | > 100 µM | > 100 µM | > 100 µM | > 100 µM | > 100 µM | – | – | > 100 µM | > 100 µM | –
6 | Cc1[nH]n(-c2nc3c(c(=O)[nH]2)CCC3)c(=O)c1CCO | > 100 µM | > 100 µM | > 100 µM | – | > 100 µM | 46.5 µM | – | > 100 µM | > 100 µM | > 100 µM | > 100 µM
7 | C=CCNC(=O)/C(Cc1cc(Br)c(OC)c(Br)c1O)=N\O | 26 µM | – | 25.2 µM | > 100 µM | 15.9 µM | – | 18.3 µM | 25.1 µM | 23.4 µM | 11.6 µM | –
8 | COc1ccc(C2CCC(Cl)(OC)CC2C=O)cc1 (stereo not drawn) | > 100 µM | 43.9 µM | > 100 µM | > 100 µM | > 100 µM | > 100 µM | – | – | > 100 µM | > 100 µM | –
9 | CCCCSC1=N/C(=C\c2ccco2)C(=O)N1 | > 100 µM | 64.7 µM | > 100 µM | – | > 100 µM | > 100 µM | > 100 µM | > 100 µM | > 100 µM | > 100 µM | > 100 µM
10 | C=C(C)[C@@H]1CC[C@@H](C)[C@](O)([C@@H]2C[C@@H]([C@H](COC(=O)c3ccccc3)OC(=O)c3ccccc3)OC2=O)C1 | > 100 µM | > 100 µM | > 100 µM | > 100 µM | > 100 µM | > 100 µM | > 100 µM | > 100 µM | > 100 µM | > 100 µM | –
11 | COc1cc2c(cc1OC)C1C(O)C(OC)C=C3CC[N+](C)(C2)C31 (stereo not drawn) | > 100 µM | > 100 µM | > 100 µM | – | > 100 µM | > 100 µM | > 100 µM | > 100 µM | > 100 µM | > 100 µM | > 100 µM
12 | CCOC(=O)C1=C(O)c2ccccc2C(=O)C1=O | > 100 µM | > 100 µM | > 100 µM | > 100 µM | > 100 µM | > 100 µM | – | – | > 100 µM | > 100 µM | –
13 | CC(=O)OC1OC2C(NC(=O)OC(C)(C)C)C1CC2(OCc1ccccc1)OCc1ccccc1 (stereo not drawn) | 41.5 µM | 32.2 µM | > 100 µM | > 100 µM | > 100 µM | > 100 µM | – | – | 56.5 µM | 33.1 µM | –
14 | c1ccc2[nH]c3[nH]c4[nH]c5ccccc5[nH]c4[nH]c3[nH]c2c1 | > 100 µM | > 100 µM | > 100 µM | > 100 µM | > 100 µM | 53.4 µM | > 100 µM | > 100 µM | > 100 µM | > 100 µM | –
15 | COC(=O)C(/C(=N/N)C(=O)Nc1cc(Cl)c(Cl)cc1Cl)c1nc2ccc(Cl)cc2[nH]c1=O (stereo not drawn) | – | > 100 µM | > 100 µM | > 100 µM | > 100 µM | > 100 µM | > 100 µM | – | > 100 µM | > 100 µM | > 100 µM
16 | O=C(O)c1cc(-c2ccccc2O)nc2ccccc12 | > 100 µM | – | > 100 µM | – | > 100 µM | > 100 µM | – | – | – | > 100 µM | –
17 | COC(C/C(=C/CO[Si](C(C)C)(C(C)C)C(C)C)C(=O)Nc1ccccc1I)OC | > 100 µM | 27.1 µM | – | > 100 µM | > 100 µM | > 100 µM | – | > 100 µM | 98.5 µM | > 100 µM | > 100 µM
18 | OCCSCc1cc2c(O)c(c1)Cc1cc(CSCCO)cc(c1O)Cc1cc(CSCCO)cc(c1O)Cc1cc(CSCCO)cc(c1O)C2 | 7.31 µM | 18.3 µM | 46.1 µM | – | 7.84 µM | – | 11.7 µM | 23.5 µM | 37.5 µM | 4.4 µM | 26.3 µM
19 | COc1cccc(/C(C=O)=C(\Cl)c2ccc(OC)c(OC)c2)c1 | 27.5 µM | 25.1 µM | 33.9 µM | 82.1 µM | 28 µM | 21.3 µM | – | – | 28.1 µM | 25.3 µM | –
20 | CC1(C)OC(=O)C(C)(C)OC1=O | > 100 µM | > 100 µM | > 100 µM | > 100 µM | > 100 µM | > 100 µM | – | > 100 µM | > 100 µM | > 100 µM | > 100 µM
21 | CCOc1ccc(N/C(=C(/C(Cl)=C(/Cl)NCCO)[N+](=O)[O-])n2nnc3ccccc32)cc1 | 29.7 µM | 31.7 µM | > 100 µM | – | > 100 µM | > 100 µM | 38.6 µM | 36 µM | > 100 µM | – | 37.6 µM
22 | COc1ccc(C2SC(N)=Nc3c2c(C)nn3C(=O)c2ccc(Cl)cc2)cc1 (stereo not drawn) | > 10 µM | > 10 µM | > 10 µM | – | > 10 µM | > 10 µM | > 10 µM | > 10 µM | > 10 µM | > 10 µM | > 10 µM
23 | CC1(C)C=C(/C=N/Nc2ccc(Br)cc2)C(C#N)=C(O)C1(C#N)C#N | 36.8 µM | 91.3 µM | > 100 µM | 75.5 µM | > 100 µM | > 100 µM | – | > 100 µM | > 100 µM | > 100 µM | > 100 µM
